For data set [1], the system named is Acinetobacter. In words: In vitro Minimum inhibitory concentration against Acinetobacter CMX 669.
Data set [2] concerns Staphylococcus epidermidis. In words: In vitro Minimum inhibitory concentration against Staphylococcus epidermidis 3519. The data set is classed as functional.
Data set [3] deals with Staphylococcus aureus. The data set can be described thus: In vitro Minimum inhibitory concentration against Staphylococcus aureus A5177. The data set is classed as functional.
Data set [4] deals with Staphylococcus aureus. The data set can be described thus: In vitro Minimum inhibitory concentration against Staphylococcus aureus 45. It counts as functional.
The nature of data set [5]: Blood level was evaluated by a disk agar diffusion assay at 3.0 hh when administered at a peroral dose of 100 mg/kg. Particulars: mouse, po, read-out: Blood level. Also on record: dose 100 mg/kg, route oral. It counts as ADME, organism-based. (In agar diffusion tests the substance spreads into inoculated agar from a disc or well.)
In data set [6] the test system is Staphylococcus aureus. The data set can be described thus: In vitro Minimum inhibitory concentration against Staphylococcus aureus ATCC 6538P. The data set is classed as functional.
The next data set has as its system Streptococcus agalactiae. In words: In vitro Minimum inhibitory concentration against Streptococcus agalactiae CMX 508. The data set is classed as functional.
The next data set has as its system Streptococcus equinus. The data set can be described thus: In vitro Minimum inhibitory concentration against Streptococcus bovis A5169. It counts as functional.
Data set [7] relates to Staphylococcus aureus. In words: In vitro Minimum inhibitory concentration against Staphylococcus aureus CMX 686B. It counts as functional.
For another data set, the system named is Enterococcus faecium. In words: In vitro Minimum inhibitory concentration against Streptococcus faecium ATCC 8043. It counts as functional.
Data set [8] concerns Klebsiella pneumoniae. The data set can be described thus: In vitro Minimum inhibitory concentration against Klebsiella pneumoniae 8045. The data set is classed as functional.
The next data set has as its system Streptococcus pyogenes. The data set can be described thus: In vitro Minimum inhibitory concentration against Streptococcus pyogenes 930. The data set is classed as functional.
The test system of data set [9] is Escherichia coli. In words: In vitro Minimum inhibitory concentration against Escherichia coli Juhl. The data set is classed as functional.
Data set [10] deals with Pseudomonas aeruginosa. In words: In vitro Minimum inhibitory concentration against Pseudomonas aeruginosa 5007. It counts as functional.
Data set [11] relates to Acinetobacter. The data set can be described thus: In vitro Minimum inhibitory concentration against Acinetobacter CMX 669. The data set is classed as functional.
Data set [12] concerns Escherichia coli. The data set can be described thus: Supercoiling inhibition assay using purified DNA gyrase isolated from Escherichia coli H560. The data set is classed as functional. The settings on record: read-out: I50.
Data set [13] has as its system Mus musculus. The data set can be described thus: Blood level was evaluated by a disk agar diffusion assay at 6.0 hr when administered at a peroral dose of 25 mg/kg. The settings on record: route oral. The data set is classed as functional.
Data set [14] concerns Pseudomonas aeruginosa. The data set can be described thus: In vitro Minimum inhibitory concentration against Pseudomonas aeruginosa K799/WT. It counts as functional.
Data set [15] has as its system Mus musculus. The data set can be described thus: (§1) Blood level was evaluated by a disk agar diffusion assay at 3.0 hh when administered at a peroral dose of 25 mg/kg. The data set is classed as functional. The settings on record: route oral.
Data set [16] has as its system Mus musculus. The data set can be described thus: (§2) Blood level was evaluated by a disk agar diffusion assay at 1.0 hr when administered at a peroral dose of 25 mg/kg. The data set is classed as functional. Particulars: route oral.
The subject of data set [17] is Mus musculus. The data set can be described thus: Blood level was evaluated by a disk agar diffusion assay at 24.0 hr when administered at a peroral dose of 25 mg/kg. The data set is classed as functional. The settings on record: route oral.
Data set [18] can be described thus: Compound was evaluated for the solubility in Ringer's buffer solution. The data set is classed as ADME. Particulars: Ringer's buffer solution; read-out: Solubility.
A short description of data set [19]: Partition coefficient (logP). The settings on record: octanol/water. It counts as physicochemical.
Data set [20] concerns Mus musculus. The data set can be described thus: (§3) Blood level was evaluated by a disk agar diffusion assay at 0.5 hr when administered at a peroral dose of 25 mg/kg. The data set is classed as functional. Particulars: route oral.
The subject of data set [21] is Mus musculus. The data set can be described thus: (§4) Blood level was evaluated by a disk agar diffusion assay at 2.0 hr when administered at a peroral dose of 25 mg/kg. The data set is classed as functional. The settings on record: route oral.
Data set [22] concerns Klebsiella pneumoniae. The data set can be described thus: In vitro Minimum inhibitory concentration against Klebsiella pneumoniae 8045.
The nature of data set [23]: as §1. The data set is classed as ADME, organism-based. Set-up: dose 25 mg/kg, route oral. Particulars: mouse, po, read-out: Blood level.
Data set [24] is described as follows: as §2. It counts as ADME, organism-based. Set-up: dose 25 mg/kg, route oral. The settings on record: mouse, po, read-out: Blood level.
Data set [25] relates to Mus musculus. The data set can be described thus: In vivo efficacy against Staphylococcus aureus 10649, in mouse protection tests when administered subcutaneously (sc). It counts as functional.
Data set [26] can be described thus: as §3. It counts as ADME, organism-based. Also on record: dose 25 mg/kg, route oral. The settings on record: mouse, po, read-out: Blood level.
Data set [27] in a line: as §4. The settings on record: mouse, po, read-out: Blood level. Set-up: dose 25 mg/kg, route oral. The data set is classed as ADME, organism-based.
Data set [28] concerns Mus musculus. The data set can be described thus: In vivo efficacy against Staphylococcus aureus 10649, in mouse protection tests when administered perorally (po). It counts as functional.

Converted amounts (≈) assume the structure as drawn.

On to `NC1CCN(c2cc3c(cc2F)c(=O)c(C(=O)O)cn3-c2ccc(F)cc2F)C1` (centres undefined), for which the MIC (as a rule, the lowest concentration found to suppress growth) against Acinetobacter [1] worked out at 0.1 µg/mL (≈ 0.248 µM); in data set [2], 0.1 µg/mL (≈ 0.248 µM); with Staphylococcus aureus [3], 0.1 µg/mL (≈ 0.248 µM); against Staphylococcus aureus [4], 0.1 µg/mL (≈ 0.248 µM); with Staphylococcus aureus [6], 0.05 µg/mL (≈ 0.124 µM); against Streptococcus agalactiae it was 0.2 µg/mL (≈ 0.496 µM). Further, the minimum inhibitory concentration (MIC) with Streptococcus equinus amounted to 0.78 µg/mL (≈ 1.93 µM); in the data set with Staphylococcus aureus [7], 0.05 µg/mL (≈ 0.124 µM); with Enterococcus faecium, 0.2 µg/mL (≈ 0.496 µM); in the data set on Klebsiella pneumoniae [8] it was 0.05 µg/mL (≈ 0.124 µM); against Streptococcus pyogenes, 0.2 µg/mL (≈ 0.496 µM); with Escherichia coli [9], 0.05 µg/mL (≈ 0.124 µM). The MIC with Pseudomonas aeruginosa [10] worked out at 1.56 µg/mL (≈ 3.87 µM); with Acinetobacter [11], 0.1 µg/mL (≈ 0.248 µM); in the data set with Acinetobacter [11] (Acinetobacter, read-out: MIC), 0.1 µg/mL (≈ 0.248 µM). For the same compound, the concentration at 3 h in data set [5] worked out at 900 ng/mL.
As to `C[C@@H]1C[C@H](N)CN1c1nc2c(cc1F)c(=O)c(C(=O)O)cn2-c1ccc(F)cc1F`, the IC50 in the data set with Escherichia coli [12] was determined as 7.5 µg/mL (≈ 17.9 µM). In addition, the Blood level turned out to be 1.1 µg/mL in the data set with Mus musculus [13]; 2.2 µg/mL in the data set with Mus musculus [15]; 12.4 µg/mL in the data set with Mus musculus [16]; 0 µg/mL in the data set with Mus musculus [17]; 5.3 µg/mL in the data set on Mus musculus [20]; 3.7 µg/mL in the data set with Mus musculus [21]. Further, the MIC is 3.1 µg/mL (≈ 7.41 µM) against Pseudomonas aeruginosa [14]; 0.39 µg/mL (≈ 0.932 µM) in data set [2]; 0.39 µg/mL (≈ 0.932 µM) against Staphylococcus aureus [3]; 0.39 µg/mL (≈ 0.932 µM) with Staphylococcus aureus [4]; 0.2 µg/mL (≈ 0.478 µM) in the data set with Staphylococcus aureus [6]; 6.2 µg/mL (≈ 14.8 µM) against Streptococcus agalactiae. The MIC with Streptococcus equinus turned out to be 6.2 µg/mL (≈ 14.8 µM); against Staphylococcus aureus [7] it was 0.2 µg/mL (≈ 0.478 µM); against Enterococcus faecium it was 3.1 µg/mL (≈ 7.41 µM); with Klebsiella pneumoniae [8], 0.39 µg/mL (≈ 0.932 µM); in the data set on Streptococcus pyogenes, 1.56 µg/mL (≈ 3.73 µM); in the data set with Escherichia coli [9], 0.39 µg/mL (≈ 0.932 µM). Moreover, the MIC against Pseudomonas aeruginosa [10] amounted to 12.5 µg/mL (≈ 29.9 µM); in the data set with Acinetobacter [11] (Acinetobacter, read-out: MIC), 0.78 µg/mL (≈ 1.86 µM). The solubility (in general, the dissolved amount per volume that the medium holds) in data set [18] was 340 µg/mL (≈ 813 µM). Moreover, the logP – broadly, a log measure of how a compound divides between an organic and an aqueous phase – in [19] was -0.11.
Regarding `N[C@H]1CC(CN2CCCC2)N(c2cc3c(cc2F)c(=O)c(C(=O)O)cn3-c2ccc(F)cc2F)C1` (some centres undefined), the MIC worked out at 0.39 µg/mL (≈ 0.802 µM) against Klebsiella pneumoniae [22]; 1.56 µg/mL (≈ 3.21 µM) with Pseudomonas aeruginosa [14]; 3.1 µg/mL (≈ 6.37 µM) in data set [2]; 3.1 µg/mL (≈ 6.37 µM) in the data set on Staphylococcus aureus [3]; 3.1 µg/mL (≈ 6.37 µM) in the data set on Staphylococcus aureus [4]; 1.56 µg/mL (≈ 3.21 µM) against Staphylococcus aureus [6]. Moreover, the MIC in the data set with Streptococcus agalactiae amounted to 25 µg/mL (≈ 51.4 µM); in the data set with Streptococcus equinus it was 25 µg/mL (≈ 51.4 µM); with Staphylococcus aureus [7], 1.56 µg/mL (≈ 3.21 µM); in the data set on Enterococcus faecium it was 6.2 µg/mL (≈ 12.7 µM); against Streptococcus pyogenes, 25 µg/mL (≈ 51.4 µM); against Escherichia coli [9], 0.78 µg/mL (≈ 1.6 µM). The lowest concentration to inhibit growth in the data set on Pseudomonas aeruginosa [10] (MIC) was 1.56 µg/mL (≈ 3.21 µM). In data set [18], the solubility is 680 µg/mL (≈ 1400 µM). Besides, the logP in data set [19] was -0.56.
For `C[C@H]1C[C@H](N)CN1c1cc2c(cc1F)c(=O)c(C(=O)O)cn2-c1ccc(F)cc1`, the concentration at 3 h in data set [23] is 200 ng/mL. Moreover, in data set [24], the concentration at 1 h amounted to 800 ng/mL. In addition, the MIC with Pseudomonas aeruginosa [14] came to 0.78 µg/mL (≈ 1.95 µM); in data set [2] it was 0.05 µg/mL (≈ 0.125 µM); in the data set on Staphylococcus aureus [3], 0.05 µg/mL (≈ 0.125 µM); against Staphylococcus aureus [4], 0.05 µg/mL (≈ 0.125 µM); in the data set on Staphylococcus aureus [6], 0.05 µg/mL (≈ 0.125 µM); with Streptococcus agalactiae, 0.2 µg/mL (≈ 0.501 µM). In addition, the minimal inhibitory concentration (MIC) against Streptococcus equinus stood at 0.2 µg/mL (≈ 0.501 µM); in the data set on Staphylococcus aureus [7], 0.05 µg/mL (≈ 0.125 µM); against Enterococcus faecium it was 0.2 µg/mL (≈ 0.501 µM); with Klebsiella pneumoniae [8] it was 0.01 µg/mL (≈ 0.025 µM); in the data set on Streptococcus pyogenes it was 0.2 µg/mL (≈ 0.501 µM); in the data set with Escherichia coli [9], 0.02 µg/mL (≈ 0.0501 µM). In addition, the MIC in the data set on Pseudomonas aeruginosa [10] turned out to be 3.1 µg/mL (≈ 7.76 µM); in the data set with Acinetobacter [11] (Acinetobacter, read-out: MIC) it was 0.1 µg/mL (≈ 0.25 µM). Also, the 50% effective dose (ED50) (as a rule, the midpoint of the dose-response relation) came out at 0.8 mg/kg with Mus musculus [25] and 4.4 mg/kg in the data set on Mus musculus [28]. For the same compound, the concentration at 0.5 h in [26] was 1000 ng/mL. Besides, the concentration at 2 h in data set [27] was 400 ng/mL.
